Where a name gives a salt, the structure may show the parent alone. Read-outs that look alike come from different tables or passages of the source.
Tests used:
[1] = system: Delayed-Type Hypersensitivity; assay: Test n° 4: in vivo DTH (Delayed-Type Hypersensitivity) assay, SRBC-induced footpad thickness increase; set-up: species or system female C57 B1/6 mice; details: Mus musculus, read-out: DTH ED30 os
Experimental: Comparative in Vivo Activity Evaluation by DTH Assay
The immunosuppressive activity of the compounds of the invention was evaluated in vivo by DTH (Delayed-Type Hypersensitivity) assay. According to the test, sheep red blood cells (SRBC) (1×10^5 cells) suspended in 500 mcL saline, were injected i.v. into the tail vein of female C57 B1/6 mice (8-9 week old). Five days later 1×10^8 SRBC suspended in 50 mcL saline were injected into the left hind footpad. The increase in footpad thickness was measured with a dial micrometer 24 h after challenge. The test compounds were given daily for six days at different doses starting on the day of priming.

[2] = Test n° 5: in vivo bioavailability evaluation after oral administration; details: rat, 10 mg/kg
Experimental: In Vivo Bioavailability Evaluation
Aim of the study is to determine the pharmacokinetics and the oral bioavailability of the instant compounds in rats.
Species/strain/sex: rat/Lewis/male
No. formulations: 1 oral; 1 intravenous
No. animals/formulation: 3+2 controls (+an ulterior rat treated with the iv formulation); total 9
Dosages: iv: 1 mg salt/kg; oral: 10 mg salt/kg
Vehicles: iv: a solution at the conc. of 5 mg/ml in PEG 400/Tween 80 (6:1 v:v) was prepared, then diluted with dextrose at the final concentration of 0.5 mg/ml; oral: a solution at the concentration of 5 mg/ml in Cremophor ELP/EtOH abs (6.5:3.5 v:v) was prepared, then diluted with saline at the final concentration of 1 mg/ml
Experimental: Three cannulated rats/formulation were treated. One rat/formulation was only treated with the vehicle, as basal sample. The intravenous administration was given into the caudal vein as bolus; the oral administration by gastric gavage as solution. […] Plasma was immediately obtained by centrifugation (10000 rpm for 3 min) and stored in labelled tubes at -30° C. till analysis.
Analytical assay: the extraction of the compounds was performed by protein precipitation by adding 100 mcl of acetonitrile to 25 mcl of plasma. The concentrations of the compounds (as free bases) in plasma were determined by LC-MS method. Column: APEX CN RP 5 mc, 10×4 mm (Jones chromatography); mobil phase: 70% acetonitrile/30% 1 mM ammonium formate +0.01% triethylamine adjusted to pH 2.0 with formic acid; flow rate: 1 ml/min; injection volume: 10 mcL; oven temperature: 45° C.; MS detection by APCI using MRM positive ion; MRM transition: 330 m/z>239 m/z, retention time: 1.4 min; LLOQ: 5.03 ng/ml; ULOQ: 10060 ng/ml.

[3] = system: Th2 murine cells D10-G4.1 (ATCC TIB 224); assay: Inhibition of IL-2 proliferation induced activity (D10 cells, 3H-TdR uptake); assay type: cell-based
Experimental: Inhibition of IL-2 Proliferation Induced Activity
The Th2 murine cells D10-G4.1 (ATCC TIB 224) are IL-2 dependent for their growth. They are cultured in complete RPMI 1640 medium enriched with rhIL-2 (6 ng/ml) and ConA (6 ng/ml).
For testing the inhibitory effects of the compounds of the invention on IL-2 activity, D 10 cells are washed twice with complete medium, resuspended at 10^5 cells/ml in the same medium and triplicately distributed (10^4 cells/well) in flat bottomed 96 well plates. […] and […] at different concentrations are simultaneously added to the cells. The cultures are then incubated at 37° C. in a humidified 5% CO2 incubator for 48 h, the last 18 h in the presence of 0.2 μCi of ^3 H-TdR.
Uptake of 3H-TdR in the cells (cpm) is taken as a measure of cell proliferation.

[4] = oral (os), daily for six days, dose able to reduce by 30% the footpad thickness increase compared to controls, 24 h after challenge, mice

Structure (SMILES)	ED30 [1, 4] [mg/kg]	bioavailability ([2]; plasma) [%]	3HTdR uptake ([3]; 10 ng/ml, mean cpm from triplicate wells (SE), vehicle 61231 (1193))	3HTdR uptake ([3]; 30 ng/ml, mean cpm from triplicate wells (SE), vehicle 61231 (1193))	3HTdR uptake ([3]; 0.1 ug/mL)	inhibition at 0.01 µg/mL ([3]; Mus musculus, 10 ng/ml, 48 h, read-out: % inhibition vs vehicle) [%]	inhibition at 0.03 µg/mL ([3]; Mus musculus, 30 ng/ml, 48 h, read-out: % inhibition vs vehicle) [%]	inhibition at 0.1 µg/mL ([3]; Mus musculus, 100 ng/ml, 48 h, read-out: % inhibition vs vehicle) [%]	ED30 ([1]; 24 h) [mg/kg]	bioavailability ([2]; in vivo) [%]
CC1=NC(=Cc2[nH]c(-c3cc4ccccc4[nH]3)cc2OCc2ccccc2)C=C1 [PNU 190537, 2-(1H-indol-2-yl)-4-benzyloxy-5-[(5-methyl-2H-pyrrol-2-ylidene)methyl]-1H-pyrrole, hydrochloride]	11.9	20								
COc1cc(-c2cc3ccccc3[nH]2)[nH]c1C=C1C=CC(C)=N1.Cl [PNU 190364, 2-(1H-indol-2-yl)-4-methoxy-5-[(5-methyl-2H-pyrrol-2-ylidene)methyl]-1H-pyrrole, hydrochloride]	6.6	82								
CCCCCC1=NC(=Cc2[nH]c(-c3cc4ccccc4[nH]3)cc2OC)C=C1.Cl [PNU 190192, 2-(1H-indol-2-yl)-4-methoxy-5-[(5-pentyl-2H-pyrrol-2-ylidene)methyl]-1H-pyrrole, hydrochloride]	7.1	38	57325 (1280) cpm	29681 (1528) cpm	1388 (62) cpm	6	52	98		
CCCCCCCCCCCC1=NC(=Cc2[nH]c(-c3cc4ccccc4[nH]3)cc2OC)C=C1.Cl [PNU 166823, 2-(1H-indol-2-yl)-4-methoxy-5-[(5-undecyl-2H-pyrrol-2-ylidene)methyl]-1H-pyrrole, hydrochloride]									8.8	5
